According to patent publication US20260115250A1, “METHODS OF TREATING AGE-RELATED MACULAR DEGENERATION” (Character Biosciences, Inc., priority 2022, published 2026):
Ends that are not written are not given here. Peptide text beside a SMILES is read from it.

Target: LDLR (Homo sapiens, UniProt P01130)
Experiment: LDLR binding (SPR), high surfactant preparation
Conditions: not given
Protocol: The table shown in FIG. 23 illustrates LDLR binding data (SPR), using a high surfactant preparation. Recombinant LDLR was diluted in 10 mM acetate buffer pH 4.5 and amine coupled to a CM5 chip at 1000 RU. Peptides were diluted to 5 μM in running buffer (HBS-P+, 1 mM CaCl2) and serially diluted 1:3 for 5 total concentrations. Peptides were exposed to immobilized LDLR at a rate of […] for 120 seconds. Between cycles, the chip surface was regenerated with 3 injections of 50 mM NaOH/100 mM EDTA. Multi-Cycle Kinetics was performed on a Biacore Insight Evaluation Software and binding kinetics were analyzed with a 1:1 binding model.

Chain of LDLR (P01130 22-860): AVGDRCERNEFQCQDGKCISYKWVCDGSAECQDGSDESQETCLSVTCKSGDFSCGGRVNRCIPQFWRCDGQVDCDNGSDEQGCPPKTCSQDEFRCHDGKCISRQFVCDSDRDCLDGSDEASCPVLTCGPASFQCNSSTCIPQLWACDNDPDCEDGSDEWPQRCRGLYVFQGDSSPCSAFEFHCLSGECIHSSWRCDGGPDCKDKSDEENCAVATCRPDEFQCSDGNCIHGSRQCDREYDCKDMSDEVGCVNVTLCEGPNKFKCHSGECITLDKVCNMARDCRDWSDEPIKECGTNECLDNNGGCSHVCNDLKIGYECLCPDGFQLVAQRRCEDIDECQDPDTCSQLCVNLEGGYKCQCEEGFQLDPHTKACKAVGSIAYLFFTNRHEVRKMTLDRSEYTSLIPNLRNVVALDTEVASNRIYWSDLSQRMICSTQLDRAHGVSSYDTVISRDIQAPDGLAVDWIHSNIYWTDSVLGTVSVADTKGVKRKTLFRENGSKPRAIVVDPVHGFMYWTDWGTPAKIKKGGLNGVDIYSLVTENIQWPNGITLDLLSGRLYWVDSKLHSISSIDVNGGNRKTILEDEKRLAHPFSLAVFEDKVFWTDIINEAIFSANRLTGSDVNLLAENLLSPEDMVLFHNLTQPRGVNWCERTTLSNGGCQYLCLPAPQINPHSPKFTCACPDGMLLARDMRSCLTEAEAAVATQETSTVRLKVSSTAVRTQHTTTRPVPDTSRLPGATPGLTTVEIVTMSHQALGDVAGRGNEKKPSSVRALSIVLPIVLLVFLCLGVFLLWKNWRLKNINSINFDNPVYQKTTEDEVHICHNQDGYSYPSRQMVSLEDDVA

| Molecule | Kd |
| --- | --- |
| CC(C)C[C@H](NC(=O)[C@H](CCCNC(=N)N)NC(=O)[C@H](CC(=O)O)NC(=O)[C@H](CCC(N)=O)NC(=O)[C@H](CC(C)C)NC(=O)[C@H](CCCCN)NC(=O)[C@H](CC(=O)O)NC(=O)CNC(=O)[C@H](CC(=O)O)NC(=O)[C@H](CCCNC(=N)N)NC(=O)[C@H](CC(C)C)NC(=O)[C@H](CC(C)C)NC(=O)[C@H](CCCNC(=N)N)NC(=O)[C@H](CCCNC(=N)N)NC(=O)[C@H](CCCNC(=N)N)NC(=O)[C@H](CC(C)C)NC(=O)[C@H](CCCNC(=N)N)NC(=O)[C@H](CCCNC(=N)N)NC(=O)[C@H](CC(C)C)NC(=O)[C@@H](N)Cc1c[nH]cn1)C(=O)N[C@@H](C)C(=O)N[C@@H](CCC(=O)O)C(=O)N[C@@H](Cc1ccc(O)cc1)C(=O)N[C@@H](CCC(N)=O)C(=O)N[C@@H](C)C(=O)N[C@@H](CCCNC(=N)N)C(=O)N[C@@H](C)C(=O)N[C@@H](CCCCN)C(=O)N[C@@H](CCC(=O)O)C(=O)N[C@@H](C)C(=O)N[C@@H](Cc1ccccc1)C(=O)N[C@@H](CC(=O)O)C(=O)N[C@@H](CCCNC(=N)N)C(=O)O [T-041] (H-HLRRLRRRLLRDGDKLQDRLAEYQARAKEAFDR-OH) | < 10 µM |
| MEDVRGRLVQYRGEVQAMLGQSTEELRVRLASHLRKLRKRLLRDADDLQKRLAVYQA [T-068] | < 10 µM |
| WKDFGERVERALREQFEDLGQSTEELRVRLASHLRKLRKRLLRDADDLQKRLAVYQA [T-113] | < 10 µM |
| DAWERFRALFKELADYFRLGQSTEELRVRLASHLRKLRKRLLRDADDLQKRLAVYQA [T-116] | < 10 µM |

Same assay, conditions: high surfactant preparation (HBS-P+), 1:1 binding model; read-out: binding KD to LDLR

| Kd | Molecule |
| --- | --- |
| < 10 µM | CC(C)C[C@H](NC(=O)[C@H](CCCNC(=N)N)NC(=O)[C@H](CC(=O)O)NC(=O)[C@H](CCC(N)=O)NC(=O)[C@H](CC(C)C)NC(=O)[C@H](CCCCN)NC(=O)[C@H](CC(=O)O)NC(=O)CNC(=O)[C@H](CC(=O)O)NC(=O)[C@H](CCCNC(=N)N)NC(=O)[C@H](Cc1ccccc1)NC(=O)[C@H](CC(C)C)NC(=O)[C@H](CCCNC(=N)N)NC(=O)[C@H](CCCCN)NC(=O)[C@@H](NC(=O)[C@H](CC(C)C)NC(=O)[C@H](CCCCN)NC(=O)[C@H](CCCNC(=N)N)NC(=O)[C@H](CC(C)C)NC(=O)[C@@H](N)Cc1c[nH]cn1)C(C)C)C(=O)N[C@@H](C)C(=O)N[C@@H](CCC(=O)O)C(=O)N[C@@H](Cc1ccc(O)cc1)C(=O)N[C@@H](CCC(N)=O)C(=O)N[C@@H](C)C(=O)N[C@@H](CCCNC(=N)N)C(=O)N[C@@H](C)C(=O)N[C@@H](CCCCN)C(=O)N[C@@H](CCC(=O)O)C(=O)N[C@@H](C)C(=O)N[C@@H](Cc1ccccc1)C(=O)N[C@@H](CC(=O)O)C(=O)N[C@@H](CCCNC(=N)N)C(=O)O [T-059] (H-HLRKLVKRLFRDGDKLQDRLAEYQARAKEAFDR-OH) |
| < 10 µM | CC(C)C[C@H](NC(=O)[C@H](CCCNC(=N)N)NC(=O)[C@H](CCCCN)NC(=O)[C@H](CCC(N)=O)NC(=O)[C@H](CC(C)C)NC(=O)[C@H](CC(=O)O)NC(=O)[C@H](CC(=O)O)NC(=O)[C@H](C)NC(=O)[C@H](CC(=O)O)NC(=O)[C@H](CCCNC(=N)N)NC(=O)[C@H](CC(C)C)NC(=O)[C@H](CC(C)C)NC(=O)[C@H](CCCNC(=N)N)NC(=O)[C@H](CCCCN)NC(=O)[C@H](CCCNC(=N)N)NC(=O)[C@H](CC(C)C)NC(=O)[C@H](CCCCN)NC(=O)[C@H](CCCNC(=N)N)NC(=O)[C@H](CC(C)C)NC(=O)[C@H](Cc1c[nH]cn1)NC(=O)[C@H](CO)NC(=O)[C@H](C)NC(=O)[C@@H](N)CC(C)C)C(=O)N[C@@H](C)C(=O)N[C@H](C(=O)N[C@@H](Cc1ccc(O)cc1)C(=O)N[C@@H](CCC(N)=O)C(=O)N[C@@H](C)C(=O)NCC(=O)N[C@@H](C)C(=O)N[C@@H](CCCNC(=N)N)C(=O)N[C@@H](CCC(=O)O)C(=O)NCC(=O)N[C@@H](C)C(=O)N[C@@H](CCC(=O)O)C(=O)N[C@@H](CCCNC(=N)N)C(=O)O)C(C)C [T-046] |
| < 10 µM | CC(C)C[C@H](NC(=O)[C@H](CCCNC(=N)N)NC(=O)[C@H](CC(=O)O)NC(=O)[C@H](CCC(N)=O)NC(=O)[C@H](CC(C)C)NC(=O)[C@H](CCCCN)NC(=O)[C@H](CC(=O)O)NC(=O)CNC(=O)[C@H](CC(=O)O)NC(=O)[C@H](CCCNC(=N)N)NC(=O)[C@H](CC(C)C)NC(=O)[C@H](CC(C)C)NC(=O)[C@H](CCCNC(=N)N)NC(=O)[C@H](CCCCN)NC(=O)[C@H](CCCNC(=N)N)NC(=O)[C@H](CC(C)C)NC(=O)[C@H](CCCCN)NC(=O)[C@H](CCCNC(=N)N)NC(=O)[C@H](CC(C)C)NC(=O)[C@@H](N)Cc1c[nH]cn1)C(=O)N[C@@H](C)C(=O)N[C@@H](CCC(=O)O)C(=O)N[C@@H](Cc1ccc(O)cc1)C(=O)N[C@@H](CCC(N)=O)C(=O)N[C@@H](C)C(=O)N[C@@H](CCCNC(=N)N)C(=O)N[C@@H](C)C(=O)N[C@@H](CCCNC(=N)N)C(=O)N[C@@H](CCC(=O)O)C(=O)N[C@@H](C)C(=O)N[C@@H](Cc1ccccc1)C(=O)N[C@@H](CC(=O)O)C(=O)N[C@@H](CCCNC(=N)N)C(=O)O [T-055] (H-HLRKLRKRLLRDGDKLQDRLAEYQARAREAFDR-OH) |
| < 10 µM | CSCC[C@H](NC(=O)[C@H](CC(C)C)NC(=O)[C@H](CC(=O)O)NC(=O)[C@H](CCCCN)NC(=O)CNC(=O)[C@H](Cc1ccc(O)cc1)NC(=O)[C@H](CC(=O)O)NC(=O)[C@@H](NC(=O)[C@@H](NC(=O)[C@@H](NC(=O)[C@H](CCC(N)=O)NC(=O)[C@H](Cc1ccccc1)NC(=O)[C@H](Cc1ccc(O)cc1)NC(=O)[C@H](CCC(N)=O)NC(=O)[C@H](CO)NC(=O)[C@@H](NC(=O)[C@H](CC(C)C)NC(=O)[C@H](CO)NC(=O)[C@H](CCCNC(=N)N)NC(=O)[C@H](C)NC(=O)[C@H](CC(C)C)NC(=O)[C@H](CCCNC(=N)N)NC(=O)[C@H](CCCCN)NC(=O)[C@H](CCCNC(=N)N)NC(=O)[C@H](CC(C)C)NC(=O)[C@H](CCCCN)NC(=O)[C@H](CCCNC(=N)N)NC(=O)[C@H](CC(C)C)NC(=O)[C@H](Cc1c[nH]cn1)NC(=O)[C@H](CCCNC(=N)N)NC(=O)[C@H](C)NC(=O)[C@@H](N)CC(C)C)C(C)C)[C@@H](C)O)C(C)C)[C@@H](C)O)C(=O)O [T-066] (H-LARHLRKLRKRLARSLVSQYFQTVTDYGKDLM-OH) |
| < 10 µM | CC(C)C[C@H](NC(=O)[C@H](CCCNC(=N)N)NC(=O)[C@H](CC(=O)O)NC(=O)[C@H](CCC(N)=O)NC(=O)[C@H](CC(C)C)NC(=O)[C@H](CCCCN)NC(=O)[C@H](CC(=O)O)NC(=O)CNC(=O)[C@H](CC(=O)O)NC(=O)[C@H](CCCNC(=N)N)NC(=O)[C@H](CC(C)C)NC(=O)[C@H](CC(C)C)NC(=O)[C@H](CCCNC(=N)N)NC(=O)[C@H](CCCCN)NC(=O)[C@H](CCCNC(=N)N)NC(=O)[C@H](CC(C)C)NC(=O)[C@H](CCCCN)NC(=O)[C@H](CCCNC(=N)N)NC(=O)[C@H](CC(C)C)NC(=O)[C@@H](N)Cc1c[nH]cn1)C(=O)N[C@@H](C)C(=O)N[C@@H](CCC(=O)O)C(=O)N[C@@H](Cc1ccc(O)cc1)C(=O)N[C@@H](CCC(N)=O)C(=O)N[C@@H](C)C(=O)N[C@@H](CCCNC(=N)N)C(=O)N[C@@H](C)C(=O)N[C@@H](CCCCN)C(=O)N[C@@H](CCC(=O)O)C(=O)N[C@@H](C)C(=O)N[C@@H](Cc1ccccc1)C(=O)N[C@@H](CC(=O)O)C(=O)N[C@@H](CCCNC(=N)N)C(=O)O [T-040] (H-HLRKLRKRLLRDGDKLQDRLAEYQARAKEAFDR-OH) |
| < 10 µM | CC(C)C[C@H](NC(=O)[C@H](CCCNC(=N)N)NC(=O)[C@H](CCCCN)NC(=O)[C@H](CCC(N)=O)NC(=O)[C@H](CC(C)C)NC(=O)[C@H](CC(=O)O)NC(=O)[C@H](CC(=O)O)NC(=O)[C@H](C)NC(=O)[C@H](CC(=O)O)NC(=O)[C@H](CCCNC(=N)N)NC(=O)[C@H](CC(C)C)NC(=O)[C@H](CC(C)C)NC(=O)[C@H](CCCNC(=N)N)NC(=O)[C@H](CCCCN)NC(=O)[C@H](CCCNC(=N)N)NC(=O)[C@H](CC(C)C)NC(=O)[C@H](CCCCN)NC(=O)[C@H](CCCNC(=N)N)NC(=O)[C@H](CC(C)C)NC(=O)[C@@H](N)Cc1c[nH]cn1)C(=O)N[C@@H](C)C(=O)N[C@@H](CCC(=O)O)C(=O)N[C@@H](Cc1ccc(O)cc1)C(=O)N[C@@H](CCC(N)=O)C(=O)N[C@@H](C)C(=O)N[C@@H](CCCNC(=N)N)C(=O)N[C@@H](C)C(=O)N[C@@H](CCCCN)C(=O)N[C@@H](CCC(=O)O)C(=O)N[C@@H](C)C(=O)N[C@@H](Cc1ccccc1)C(=O)N[C@@H](CC(=O)O)C(=O)N[C@@H](CCCNC(=N)N)C(=O)O [T-064] (H-HLRKLRKRLLRDADDLQKRLAEYQARAKEAFDR-OH) |

Test system: not listed separately
Experiment: DMPC solubility assay, 0.5 mM DMPC (turbidity reduction)
Format: biochemical
Conditions: 3.16-100 μM peptides, 15 minutes
Protocol: In this example, peptide stocks were diluted to 200 μM in H2O (a 2× solution) and 50 μL of peptide solution was transferred in triplicate into 96-well plates. A one mM solution of 1,2-dimyristoyl-sn-glycero-3-phosphocholine (DMPC) in H2O was prepared, and using a multichannel pipet, 50 μL DMPC solution was rapidly added to the plate. Peptide and lipid solutions were incubated at room temperature for 15 minutes with a final concentration of 100 μM peptides and 0.5 mM DMPC. After 15 minutes, absorbance was read on a plate reader at 405 nm. […] Data are presented as mean+SD over two runs.
In these experiments, DMPC solubility titration curves were generated. Peptide stocks were diluted to 200 μM in H2O (a 2× solution) and serially diluted in H2O over 4 concentrations, then 50 μL of peptide solutions were distributed in triplicate into 96-well plates. A 1 mM solution of 1,2-dimyristoyl-sn-glycero-3-phosphocholine (DMPC) in H2O was prepared, and using a multichannel pipet, 50 μL DMPC solution was rapidly added to the plate. Peptide and lipid solutions were incubated at room temperature for 15 minutes with final concentrations of 3.16-100 μM peptides and 0.5 mM DMPC. After 15 minutes, absorbance was read on a plate reader at 405 nm. […] Data are presented as mean+SD over two runs. Non-linear regression was used to calculate EC50 values.

| EC50 | Molecule |
| --- | --- |
| 111 µM | HLRKLRKRLLRDADDLQDRLAEYQARAKEAFDR [T-063, therapeutic peptide] |

Same assay, conditions: FIGS. 2A-2D and 3A-3C

| Molecule | DMPC solubilizing activity |
| --- | --- |
| T-015: therapeutic peptide (LVGRQLEEFL) | did not have significant solubilizing activity |
| T-017: therapeutic peptide (PLRAELQEGARQKLHELQEKLSPPLRAELQEGARQKLHELQEKLS) | did not have significant solubilizing activity |
| T-010: therapeutic peptide (RDADDLQKRLAVYQAGAREGAE) | significant activity |
| T-006: therapeutic peptide (QDEPPQSPWDRVKDLATVYVDVLKDSGRDYVSQFEGSALGKQLN) | significant activity |
